Assay [1] has as its system B16F10 cells. The assay is described as follows: Proliferation assay (B16F10 cell line). Format: cell-based. The settings on record: read-out: Biological Assay 2: Proliferation assay (B16F10 cell line) median IC50. How it is done: (§1) Cultivated tumor cells (cells were ordered from ATCC, except HeLa-MaTu and HeLa-MaTu-ADR, which were ordered from EPO-GmbH, Berlin) were plated at a density of 1000 to 5000 cells/well, depending on the growth rate of the respective cell line, in a 96-well multititer plate in 200 μL of their respective growth medium supplemented 10% fetal calf serum. After 24 hours, the cells of one plate (zero-point plate) were stained with crystal violet (see below), while the medium of the other plates was replaced by fresh culture medium (200 μl), to which the test substances were added in various concentrations (0 μM, as well as in the range of 0.001-10 μM; the final concentration of the solvent dimethyl sulfoxide was 0.5%). The cells were incubated for 4 days in the presence of test substances. Cell proliferation was determined by staining the cells with crystal violet: the cells were fixed by adding 20 μl/measuring point of an 11% glutaric aldehyde solution for 15 minutes at room temperature. After three washing cycles of the fixed cells with water, the plates were dried at room temperature. The cells were stained by adding 100 μl/measuring point of a 0.1% crystal violet solution (pH 3.0). After three washing cycles of the stained cells with water, the plates were dried at room temperature. The dye was dissolved by adding 100 μl/measuring point of a 10% acetic acid solution. […] The change of cell number, in percent, was calculated by normalization of the measured values to the aborbtion values of the zero-point plate (=0%) and the absorbtion of the untreated (0 μm) cells (=100%). The IC50 values were determined by means of a 4 parameter fit using the company's own software.

The subject of assay [2] is NCI-H460 cells. The assay is described as follows: Proliferation assay (H460 cell line). Format: cell-based. The conditions noted are these: read-out: Biological Assay 2: Proliferation assay (H460 cell line) median IC50. How it is done:
as §1

The test system of assay [3] is HeLa-MaTu-ADR cells. The assay can be described thus: Proliferation assay (HeLa-MaTu-ADR cell line). Format: cell-based. The settings on record: read-out: Biological Assay 2: Proliferation assay (HeLa-MaTu-ADR cell line) median IC50. How it is done:
as §1

Assay [4] deals with HeLa cells. The assay is described as follows: Proliferation assay (HeLa cell line). Format: cell-based. The conditions noted are these: read-out: Biological Assay 2: Proliferation assay (HeLa cell line) median IC50.
For assay [5], the system named is Caco2 cells. The assay is described as follows: Proliferation assay (Caco2 cell line). The assay is classed as cell-based. The conditions noted are these: read-out: Biological Assay 2: Proliferation assay (Caco2 cell line) median IC50. How it is done:
as §1

Assay [6] has as its target catalytic domain of human Bub1 (amino acids 704-1085) (Homo sapiens (Human), UniProt O43683). The assay is described as follows: Bub1 kinase assay (TR-FRET). The assay is classed as biochemical. The conditions noted are these: 10 μM ATP, 1 μM peptide substrate; read-out: Biological Assay 1: Bub1 kinase assay median IC50. The gist of the method: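 Phosphoserine product detected by TR-FRET (Eu-labeled anti-mouse IgG/anti-phosphoserine antibody to streptavidin-XL665) after 1 h at 22 °C. IC50 from 4-parameter logistic fit.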

For assay [7], the system named is DU145 cells. The assay can be described thus: Proliferation assay (DU145 cell line). The settings on record: read-out: Biological Assay 2: Proliferation assay (DU145 cell line) median IC50. The assay is classed as cell-based. How it is done:
as §1

Setting [8] is: Mus musculus, B16-F10, 96 h, B16F10, 4 days, crystal violet.
[9] abbreviates: Homo sapiens, NCI-H460, 96 h, H460, 4 days, crystal violet.
The mark [10] stands for this setting: 96 h, HeLa-MaTu-ADR, 4 days, crystal violet.
[11] abbreviates: Homo sapiens, 96 h, 4 days, crystal violet.
Setting [12] is: Homo sapiens, Caco-2, 96 h, Caco2, 4 days, crystal violet.
Setting [13] is: Homo sapiens, DU-145, 96 h, DU145, 4 days, crystal violet.

Where two headings read alike, the source gives them in different places.

catalytic domain of human Bub1 (amino acids 704-1085), sequence (O43683 704-1085): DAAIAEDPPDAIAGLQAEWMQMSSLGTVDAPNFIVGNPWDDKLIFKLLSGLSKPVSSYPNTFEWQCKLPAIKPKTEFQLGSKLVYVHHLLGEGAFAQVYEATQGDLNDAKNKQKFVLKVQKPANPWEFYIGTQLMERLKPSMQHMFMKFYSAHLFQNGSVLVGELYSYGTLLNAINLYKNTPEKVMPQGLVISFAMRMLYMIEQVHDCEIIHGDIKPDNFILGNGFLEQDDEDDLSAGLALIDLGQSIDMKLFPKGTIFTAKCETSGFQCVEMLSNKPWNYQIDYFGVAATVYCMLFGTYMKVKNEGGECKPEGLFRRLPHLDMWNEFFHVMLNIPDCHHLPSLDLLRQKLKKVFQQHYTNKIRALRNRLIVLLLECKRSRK

For `CCOc1cc(F)c(Cn2nc(-c3ncc(OCC4CNCCO4)c(Nc4ccncc4)n3)c3ccccc32)c(F)c1` (stereo not shown) [Example 38-2], the IC50 amounted to 0.6 µM in assay [1] (B16F10, 4 days, crystal violet); 1.1 µM in assay [2] (H460, 4 days, crystal violet); 1.1 µM in assay [3] (HeLa-MaTu-ADR, 4 days, crystal violet); 1.2 µM in assay [4] (4 days, crystal violet); 0.6 µM in assay [5] (Caco2, 4 days, crystal violet); 0.0034 µM in assay [6]. In addition, the IC50 in assay [7] (DU145, 4 days, crystal violet) is 1.3 µM.

With `COc1cnc(-c2nn(Cc3c(Cl)ccc(NC(C)=O)c3Cl)c3ccccc23)nc1Nc1ccncc1` [Example 41-1, N-[2,4-dichloro-3-({3-[5-methoxy-4-(pyridin-4-ylamino)pyrimidin-2-yl]-1H-indazol-1-yl}methyl)phenyl]acetamide], the IC50 in assay [1] (setting [8]) was 1.8 µM; in assay [2] (setting [9]), 10 µM; in assay [3] (setting [10]) it was 10 µM; in assay [4] (setting [11]), 6 µM; in assay [5] (setting [12]), 3.3 µM; in assay [6], 0.019 µM. In addition, the IC50 in assay [7] (setting [13]) came out at 10 µM.

For `CCCc1ccc(Cn2nc(-c3ncc(OC)c(Nc4ccncc4)n3)c3ccccc32)cc1` [Example 2-25-1, 5-methoxy-2-[1-(4-propylbenzyl)-1H-indazol-3-yl]-N-(pyridin-4-yl)pyrimidin-4-amine], the IC50 is 10 µM in assay [1] (setting [8]); 10 µM in assay [2] (setting [9]); 10 µM in assay [3] (setting [10]); 9.8 µM in assay [4] (setting [11]); 10 µM in assay [5] (setting [12]); 0.015 µM in assay [6]. In assay [7] (setting [13]), the IC50 is 10 µM.

On to `CCOc1cc(F)c(Cn2nc(-c3ncc(OCCN(C)C)c(Nc4ccncc4)n3)c3ccccc32)c(F)c1` [Example 4-8, 5-[2-(dimethyl-amino)ethoxy]-2-[1-(4-ethoxy-2,6-difluorobenzyl)-1H-indazol-3-yl]-N-(pyridin-4~ yl)pyrimidin-4-amine], for which the IC50 in assay [1] (Mus musculus, B16-F10, 96 h) worked out at 0.57 µM; in assay [2] (Homo sapiens, NCI-H460, 96 h), 1.1 µM; in assay [3] (96 h), 0.36 µM; in assay [4] (Homo sapiens, 96 h), 1.3 µM; in assay [5] (Homo sapiens, Caco-2, 96 h) it was 0.76 µM; in assay [6], 0.008 µM. Besides, in assay [7] (Homo sapiens, DU-145, 96 h), the IC50 was 1.2 µM.

With `COc1cnc(-c2nn(Cc3c(Cl)ccc(C(F)(F)F)c3Cl)c3ccccc23)nc1Nc1ccncc1` [Example 2-34-1, 2-{1-(2,6-dichloro-3-(trifluoromethyl)benzyl]-1H-indazol-3-yl}-5-methoxy-N-(pyridin-4-yl)pyrimidin-4-amine], the IC50 in assay [1] (setting [8]) is 1.2 µM; in assay [2] (setting [9]), 6.6 µM; in assay [3] (setting [10]), 1.2 µM; in assay [4] (setting [11]), 1.6 µM; in assay [5] (setting [12]) it was 3.4 µM; in assay [6], 0.038 µM. For the same compound, the IC50 in assay [7] (setting [13]) is 2.6 µM.

Regarding `COC(=O)c1ccc(CN(c2ccncc2)c2nc(-c3nn(Cc4ccc(C(=O)OC)cc4Cl)c4ccccc34)ncc2OC)c(Cl)c1` [Example 2-11-2, methyl 3-chloro-4-{[(2-{1-[2-chloro-4-(methoxycar-bonyl)benzyl]-1H-indazol-3-yl}-5-methoxypyrimidin-4-yl)(pyridin-4-yl)amino]methyl} benzoate], the IC50 was determined as 2.1 µM in assay [1] (Mus musculus, B16-F10, 96 h); 2.3 µM in assay [2] (Homo sapiens, NCI-H460, 96 h); 10 µM in assay [3] (96 h); 3.4 µM in assay [4] (Homo sapiens, 96 h); 8 µM in assay [5] (Homo sapiens, Caco-2, 96 h); 0.54 µM in assay [6]. Also, the IC50 in assay [7] (Homo sapiens, DU-145, 96 h) came out at 3.6 µM.

On to `COc1cnc(-c2nn(Cc3ccc4c(C)cc(=O)oc4c3)c3ccccc23)nc1Nc1ccncc1` [Example 2-32-1, 7-({3-[5-methoxy-4-(pyridin-4-ylamino)pyrimidin-2-yl]-1H-indazol-1-yl}methyl)-4-methyl-2H-chromen-2-one], for which the IC50 in assay [1] (setting [8]) worked out at 1.3 µM; in assay [2] (setting [9]) it was 8.5 µM; in assay [3] (setting [10]), 2.3 µM; in assay [4] (setting [11]), 4.2 µM; in assay [5] (setting [12]), 2.4 µM; in assay [6], 0.029 µM. Further, in assay [7] (setting [13]), the IC50 stood at 5.3 µM.

On to `CCOc1cc(F)c(Cn2nc(-c3ncc(OC(F)F)c(N(c4ccncc4)C(F)F)n3)c3ccccc32)c(F)c1` [Example 10-2], for which the IC50 was found to be 0.9 µM in assay [1] (setting [8]); 1.5 µM in assay [2] (setting [9]); 0.59 µM in assay [3] (setting [10]); 1.7 µM in assay [4] (setting [11]); 1.1 µM in assay [5] (setting [12]); 0.42 µM in assay [6]. In addition, the IC50 in assay [7] (setting [13]) was 1.4 µM.

On to `C/C=C/c1cc(F)c(Cn2nc(-c3ncc(OC)c(Nc4ccncc4)n3)c3ccccc32)c(F)c1` [Example 6-2, 2-(1-{2,6-difluoro-4-[(1E)-prop-1-en-1-yl]benzyl}-1H-indazol-3-yl)-5-methoxy-N-(pyridin-4-yl)pyrimidin-4-amine], for which the IC50 in assay [1] (Mus musculus, B16-F10, 96 h) stood at 1.1 µM; in assay [2] (Homo sapiens, NCI-H460, 96 h) it was 1.7 µM; in assay [3] (96 h), 1.6 µM; in assay [4] (Homo sapiens, 96 h), 1.4 µM; in assay [5] (Homo sapiens, Caco-2, 96 h), 1.2 µM; in assay [6], 0.0074 µM. For the same compound, the IC50 in assay [7] (Homo sapiens, DU-145, 96 h) turned out to be 1.4 µM.

For the compound `CCOc1cc(F)c(Cn2nc(-c3ncc(OC[C@@H]4CCC(=O)N4)c(Nc4ccncc4)n3)c3ccccc32)c(F)c1` [Example 4-22, (5S)-5-[({2-[1-(4-ethoxy-2,6-difluorobenzyl)-1H-indazol-3-yl]-4-(pyridin-4-ylamino)pyrimidin-5-yl}oxy)methyl] pyrrolidin-2-one], the IC50 in assay [1] (Mus musculus, B16-F10, 96 h) amounted to 1.2 µM; in assay [2] (Homo sapiens, NCI-H460, 96 h) it was 2.1 µM; in assay [3] (96 h), 10 µM; in assay [4] (Homo sapiens, 96 h), 1.9 µM; in assay [5] (Homo sapiens, Caco-2, 96 h), 9.5 µM; in assay [6], 0.0058 µM. Besides, the IC50 in assay [7] (Homo sapiens, DU-145, 96 h) turned out to be 3.6 µM.

For the origin of these results see US10266548B2, “Substituted benzylindazoles for use as Bub1 kinase inhibitors in the treatment of hyperproliferative diseases” (Bayer Intellectual Property GmbH, priority 2011, dated 2019).
